One data set addresses Bcr-Abl^WT (Homo sapiens, UniProt P00519). The data set is classed as biochemical.
The test system of the next data set is K562 cells. The data set is described as follows: Cellular antiproliferation assay (CCK-8), K562. It is filed as cell-based. Conditions: Homo sapiens, read-out: Antiproliferation IC50, K562.
The next data set deals with Ba/F3^WT cells. Description: Cellular antiproliferation assay (CCK-8), Ba/F3 expressing Bcr-Abl^WT. The data set is classed as cell-based, murine. Conditions: Mus musculus, read-out: Antiproliferation IC50, Ba/F3^WT.
A further data set deals with Ba/F3^T315I cells. The data set is classed as cell-based, murine. To be noted: Mus musculus, read-out: Antiproliferation IC50, Ba/F3^T315I.
A further data set has as its system K562R (Q252H) cells. Description: Cellular antiproliferation assay (CCK-8), imatinib-resistant K562R (Q252H). It is filed as cell-based. To be noted: Homo sapiens, K-562R, read-out: Antiproliferation IC50, K562R (Q252H).
Data set [1] has as its system activation of Bcr-Abl, Crkl and STAT5 in K562 CML cells. Description: Western blot of Bcr-Abl signaling in K562 cells. The data set is classed as cell-based, human. To be noted: 4.0 h treatment. Here is the method:
The Western blot analysis was carried out by following the protocol described previously. Briefly, after the indicated treatment, cell lysates were collected, dissolving cells in 1× SDS sample lysis buffer. After being sonicated and boiled, the supernatant of the cell lysate was used for Western blot analysis. Cell lysates were loaded to 8–12% SDS-PAGE and separated by electrophoresis. Separated proteins were then electrically transferred to a PVDF film. After being blocked with 1× TBS containing 0.1% Tween-20, and 5% nonfat milk, the film was incubated with corresponding primary antibody followed by HRP-conjugated secondary antibody. The protein lanes were visualized using ECL Western Blotting Detection Kit (GE Healthcare, Piscataway, NJ).
Figure 3. […] Cells were treated with GZD856 at the indicated concentrations for 4.0 h, and whole cell lysates were then subjected to Western blot analyses. The results represent three independent experiments.
Background: Immunoblotting shows a protein as a band on a membrane.

Data set [2] has as its system K562 xenograft. To be noted: mouse, in vivo, po, 10 mg/kg/day.
Data set [3] relates to HFL-1 (human embryonic lung fibroblasts). Details: method as in PMID 26940138. To be noted: human embryonic lung fibroblasts ref 26; read-out: Antiproliferative IC50, HFL-1 non-cancer cells; cited from earlier work.
The test system of data set [4] is K562 xenograft. The data set is described as follows: Subcutaneous K562 xenograft model of human CML. (In general: In xenograft studies the graft and the host belong to different species.)
Another data set concerns MOLT-4 cells. The data set is described as follows: Cellular antiproliferation assay (CCK-8), MOLT-4. The data set is classed as cell-based. To be noted: Homo sapiens, read-out: Antiproliferation IC50, MOLT-4.
Another data set concerns U937 cells. Description: Cellular antiproliferation assay (CCK-8), U937. To be noted: Homo sapiens, read-out: Antiproliferation IC50, U937. The data set is classed as cell-based.

Like-named read-outs stand apart in the source and are kept apart here. Some results are limits rather than exact numbers.

Chain of Bcr-Abl^WT (P00519 27-1130): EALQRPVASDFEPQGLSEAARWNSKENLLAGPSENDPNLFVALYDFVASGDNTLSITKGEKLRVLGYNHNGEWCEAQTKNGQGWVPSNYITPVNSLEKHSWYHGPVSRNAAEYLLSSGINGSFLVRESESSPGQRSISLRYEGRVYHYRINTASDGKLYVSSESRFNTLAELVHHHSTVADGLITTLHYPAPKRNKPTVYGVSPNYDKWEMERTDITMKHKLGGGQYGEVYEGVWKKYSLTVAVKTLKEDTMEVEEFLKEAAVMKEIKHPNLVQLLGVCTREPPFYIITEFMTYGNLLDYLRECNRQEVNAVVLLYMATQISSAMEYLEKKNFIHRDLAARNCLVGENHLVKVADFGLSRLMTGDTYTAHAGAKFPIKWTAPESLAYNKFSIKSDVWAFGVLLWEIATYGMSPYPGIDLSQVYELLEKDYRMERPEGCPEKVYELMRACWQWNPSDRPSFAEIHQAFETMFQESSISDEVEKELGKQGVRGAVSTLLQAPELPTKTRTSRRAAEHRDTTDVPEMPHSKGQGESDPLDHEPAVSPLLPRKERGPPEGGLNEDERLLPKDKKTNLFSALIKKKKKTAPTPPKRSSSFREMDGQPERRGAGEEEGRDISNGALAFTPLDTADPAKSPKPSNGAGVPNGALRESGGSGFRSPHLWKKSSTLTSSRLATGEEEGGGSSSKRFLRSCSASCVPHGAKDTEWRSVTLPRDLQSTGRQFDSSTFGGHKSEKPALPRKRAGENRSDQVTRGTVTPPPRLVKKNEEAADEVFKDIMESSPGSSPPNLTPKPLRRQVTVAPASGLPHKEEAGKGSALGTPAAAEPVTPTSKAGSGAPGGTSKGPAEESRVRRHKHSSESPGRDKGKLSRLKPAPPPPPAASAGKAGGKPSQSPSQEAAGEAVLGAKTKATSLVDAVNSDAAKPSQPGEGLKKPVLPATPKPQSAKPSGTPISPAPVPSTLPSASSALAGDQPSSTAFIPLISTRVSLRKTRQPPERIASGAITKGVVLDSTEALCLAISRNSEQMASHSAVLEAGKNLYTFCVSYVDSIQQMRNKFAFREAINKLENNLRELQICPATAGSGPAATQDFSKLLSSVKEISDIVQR

Regarding `Cc1ccc(C(=O)Nc2ccc(CN3CCN(C)CC3)c(C(F)(F)F)c2)cc1C#Cc1cnc2ccnn2c1` [GZD856, 4-Methyl-N-(4-((4-methylpiperazin-1-yl)methyl)-3-(trifluoromethyl)phenyl)-3-(pyrazolo[1,5-a]pyrimidin-6-ylethynyl)benzamide], the IC50 is 19.9 nM against Bcr-Abl^WT; 2.2 nM with K562 cells (K562, CCK-8, 72 h); 0.64 nM with Ba/F3^WT cells (BaF3, CCK-8, 72 h); 10.8 nM in the data set on Ba/F3^T315I cells (BaF3, CCK-8, 72 h); 67 nM in the data set on K562R (Q252H) cells (CCK-8, 72 h); 6.78 µM in [3]. Also, the “Suppression of activation of Bcr-Abl and downstream Crkl and STAT5” value in [1] is recorded as “efficiently suppressed the activation”. The Tolerability during treatment entry in the data set on K562 xenograft [2] is “well tolerated with no mortality”. In addition, the “Body loss relative to vehicle-matched controls” value in the data set on K562 xenograft [4] (K562 xenograft mice, oral 10 mg/kg/day, during the treatment) is less than 5%. Also, the “Tumor recurrence after cessation of treatment” value in the data set with K562 xenograft [4] (K562 xenograft, 10 mg/kg/day, 16 days of dosing, following 7 days) is reported as “no sign of tumor recurrence”. In addition, in the data set on K562 xenograft [4] (K562 xenograft, oral 10 mg/kg/day, after 8 days of treatment), the “Antitumor effect on tumor” value is “almost completely eradicated the tumor”.

Take `Cc1ccc(NC(=O)c2ccc(CN3CCN(C)CC3)cc2)cc1Nc1nccc(-c2cccnc2)n1` [Imatinib, imatinib]: the “Antitumor effect on tumor” value in the data set on K562 xenograft [4] (K562 xenograft, oral 50 mg/kg/day) is given as “only induced tumor stasis”.

For the compound `Cc1cn(-c2cc(NC(=O)c3ccc(C)c(Nc4nccc(-c5cccnc5)n4)c3)cc(C(F)(F)F)c2)cn1` [Nilotinib], the IC50 is 6.5 nM in the data set on K562 cells (K562, 72 h); 22 nM in the data set on Ba/F3^WT cells (BaF3, 72 h); 1460 nM with Ba/F3^T315I cells (BaF3, 72 h); 350 nM with K562R (Q252H) cells (72 h); 20400 nM in the data set with MOLT-4 cells (MOLT-4, 72 h); 9520 nM in the data set with U937 cells (U-937, 72 h).

Turning to `CC(=O)O[C@H]1C(=O)[C@@]2(C)[C@H]([C@H](OC(=O)c3ccccc3)[C@]3(O)C[C@H](OC(=O)[C@H](O)[C@@H](NC(=O)c4ccccc4)c4ccccc4)C(C)=C1C3(C)C)[C@]1(OC(C)=O)CO[C@@H]1C[C@@H]2O` [Taxol], the IC50 in the data set with K562 cells (K562, CCK-8, 72 h) stood at 5.1 nM; with K562R (Q252H) cells (CCK-8, 72 h), 7 nM; with MOLT-4 cells (MOLT-4, CCK-8, 72 h, negative for Bcr-Abl expression) it was 2.7 nM; in the data set on U937 cells (U-937, CCK-8, 72 h, negative for Bcr-Abl expression) it was 2.3 nM.

As to `Cc1ccc(C(=O)Nc2ccc(CN3CCN(C)CC3)c(C(F)(F)F)c2)cc1C#Cc1cnc2cccnn12` [Ponatinib, 3-[2-(imidazo[1,2-b]pyridazin-3-yl)ethynyl]-4-methyl-N-{4-[(4-methyl-piperazin-1-yl)methyl]-3-(trifluoromethyl)phenyl}benzamide], the IC50 in the data set on K562 cells (K562, 72 h) stood at 0.5 nM; in the data set with MOLT-4 cells (MOLT-4, 72 h), 7.8 nM; in the data set on U937 cells (U-937, 72 h), 1 nM.

Source of the values: paper PMC6010122 (Journal of Enzyme Inhibition and Medicinal Chemistry, 2017).
